Data reported in PMC6770071, “XIAP as a Target of New Small Organic Natural Molecules Inducing Human Cancer Cell Death” (Cancers, 2019).
In brackets after ≈: the same amount, converted by molar mass.

Tests used:
[1] = tested on: A549 cells; assay: MTT cell viability assay, A549 lung cancer cells; format: cell-based; details: Homo sapiens, 24 h
Protocol: (§1) Human U373 glioma, MCF7 breast cancer, A549 lung cancer and PC-3 prostate cancer cells were grown in Dulbecco’s Modified Eagle Medium (DMEM), supplemented with 10% foetal bovine serum, 2 mM glutamine, 100 U/mL penicillin/streptomycin, at 37 °C in a humidified atmosphere containing 5% CO2 (logarithmic growth phase, routine passages every 3 days). The human breast epithelial cell line MCF10 was cultured in DMEM/F12 Ham’s Mixture supplemented with 5% horse serum, epithelial growth factor 20 ng/mL, insulin 10 μg/mL, hydrocortisone 0.5 mg/mL, cholera toxin 100 ng/mL, and 100 U/mL penicillin/streptomycin. […]
(§2) U373, MCF7, A549, PC-3, HUVEC, and MCF10 cell viability was determined by MTT assay using published protocols. MTT absorbance was quantified spectrophotometrically using a Glomax Multi Detection System microplate reader (Promega, Milano, Italy).
(§3) Statistical significance of raw data between the groups in each experiment was evaluated using unpaired Student’s t-test (single comparisons) or one-way ANOVA followed by the Newman-Keuls post-test (multiple comparisons). The IC50 and Emax concentration were determined by non-linear regression curve analysis of the concentration-effect responses. […] The results were expressed as means ± standard error of mean (SEM) of the indicated n values.

[2] = tested on: PC-3 cells; assay: MTT cell viability assay, PC-3 prostate cancer cells; format: cell-based; details: Homo sapiens, 24 h
Protocol: as §1, §2, §3

[3] = tested on: caspase 7; assay: Cleaved-caspase 7 western blot in MCF10 cells; format: cell-based, human; details: MCF10, 6 h; gibbilimbol B/eriopodol A 30 µg/mL, erioquinol 10 µg/mL
Description: Using published protocols, MCF7 and MCF10 cells were homogenised in RIPA lysis buffer, supplemented with a cocktail of protease inhibitors (cOmplete; Roche Diagnostics, Milano, Italy). Equal amounts of proteins were separated by 4–20% SDS-polyacrylamide gel electrophoresis (Criterion TGX Stain-free precast gels and Criterion Cell system; Bio-Rad, Hercules, CA, USA) and transferred onto nitrocellulose membrane using a Bio-Rad Trans-Blot Turbo System. When indicated, the membranes were probed using the rabbit monoclonal anti-cleaved caspase 7 and anti-XIAP (Cell Signaling Technology) primary antibodies. After the incubation with the appropriate horseradish-peroxidase-conjugated secondary antibody (Cell Signaling Technology), bands were visualised using the Clarity Western ECL substrate with a ChemiDoc MP imaging system (Bio-Rad). To monitor for potential artefacts in loading and transfer among samples in different lanes, the blots were routinely treated with the Restore Western Blot Stripping Buffer (ThermoFisher Scientific) and re-probed with the goat anti-Lactate dehydrogenase (LDH)-A (Santa Cruz Biotechnology) and the mouse anti-vinculin primary antibodies. The stain-free gel was used as loading control as well. When appropriated, bands were quantified for densitometry using the Bio-Rad Image Lab software.
Figure S6. Western blot. […]

SMILES | IC50 [1] [µg/mL] | IC50 [2] [µg/mL] | activation of caspase 7 [3]
CCCCCC/C=C\CCC1(O)C=CC(=O)C=C1 [Erioquinol, (Z)-4-(dec-3′-enyl)-4-hydroxycyclohexa-2,5-dien-1-one] | 2.65 (≈ 10.7 µM) | 2.21 (≈ 8.9 µM) | 
CCCCCC/C=C/CCc1ccc(O)cc1 [Gibbilimbol B, (E)-4-(dec-3′-enyl)phenol] |  |  | activation of caspase 7
